Reference: patent US9556165B2 (priority 2012, dated 2017)
In brackets after ≈: the same amount, converted by molar mass. Read-outs that look alike come from different tables or passages of the source.

Legend:
Type in all cases: cell-based
H. influenzae ATCC 49247 = assay: MIC determination, broth microdilution (CLSI); conditions: Haemophilus influenzae, ATCC49247, strain 12; broth microdilution; read-out: MIC strain 12 (H. influenzae ATCC 49247)
E. coli J62-TEM-3 = assay: MIC determination, broth microdilution (CLSI); conditions: Escherichia coli, J62TEM3, read-out: MIC strain 18 (E. coli J62-TEM-3), strain 18; broth microdilution
B. fragilis 6688 = assay: MIC determination, broth microdilution (CLSI); conditions: Bacteroides fragilis, 6688, strain 15; broth microdilution; read-out: MIC strain 15 (B. fragilis 6688)
A. baumannii ATCC15308 = assay: MIC determination, broth microdilution (CLSI); conditions: Acinetobacter baumannii, ATCC15308, strain 9
S. aureus 133 = assay: MIC determination, broth microdilution (CLSI)
C. freundii K21/3034 = assay: MIC determination, broth microdilution (CLSI); conditions: Citrobacter freundii, K21/3034, strain 4
E. coli ATCC25922 = assay: MIC determination, broth microdilution (CLSI); conditions: Escherichia coli, ATCC25922, strain 1
Bacteria = assay: MIC determination in combination with β-lactamase inhibitors (constant 4 μg/mL)
M. morganii 126/3048 = assay: MIC determination, broth microdilution (CLSI); conditions: Morganella morganii, 126/3048, strain 5
K. pneumoniae 60 = assay: MIC determination, broth microdilution (CLSI); conditions: Klebsiella pneumoniae, 60, strain 2
E. cloacae 34654 = assay: MIC determination, broth microdilution (CLSI); conditions: Enterobacter cloacae, 34654, strain 3
P. aeruginosa PAO1 = assay: MIC determination, broth microdilution (CLSI); conditions: Pseudomonas aeruginosa, PAO1, strain 6
[1] = test system: P. aeruginosa 2297 (AmpC wt); assay: MIC determination, broth microdilution (CLSI); conditions: Pseudomonas aeruginosa, strain 7
S. pneumoniae 113 = assay: MIC determination, broth microdilution (CLSI); conditions: Streptococcus pneumoniae, 113, strain 13; broth microdilution; read-out: MIC strain 13 (S. pneumoniae 113)
E. coli J62 = assay: MIC determination, broth microdilution (CLSI); conditions: Escherichia coli, J62, strain 17; broth microdilution; read-out: MIC strain 17 (E. coli J62)
[2] = test system: P. aeruginosa 2297-con (AmpC derepressed); assay: MIC determination, broth microdilution (CLSI); conditions: Pseudomonas aeruginosa, read-out: strain 8 MIC, strain 8
[3] = Staphylococcus aureus, 133, strain 11, read-out: strain 11 MIC
[4] = Staphylococcus aureus, 133, strain 14, broth microdilution, read-out: MIC strain 14 (S. aureus 133)

SMILES	MIC (H. influenzae ATCC 49247) [µg/mL]	MIC (E. coli J62-TEM-3) [µg/mL]	MIC (B. fragilis 6688) [µg/mL]	MIC (A. baumannii ATCC15308) [µg/mL]	MIC (S. aureus 133; [3]) [µg/mL]	MIC (S. aureus 133; [4]) [µg/mL]	MIC (C. freundii K21/3034) [µg/mL]	MIC (E. coli ATCC25922) [µg/mL]	MIC strain 19 (E. coli J62-TEM-3 + 4 μg/mL clavulanic acid) (Bacteria) [mg/L]	MIC strain 20 (E. coli J62-TEM-3 + 4 μg/mL sulbactam) (Bacteria) [mg/L]	MIC strain 21 (E. coli J62-TEM-3 + 4 μg/mL tazobactam) (Bacteria) [mg/L]	MIC (M. morganii 126/3048) [µg/mL]	MIC (K. pneumoniae 60) [µg/mL]	MIC (E. cloacae 34654) [µg/mL]	MIC (P. aeruginosa PAO1) [µg/mL]	MIC [1] [µg/mL]	MIC (S. pneumoniae 113) [µg/mL]	MIC (E. coli J62) [µg/mL]	MIC [2] [µg/mL]
C[C@H]1[C@H](NC(=O)/C(=N\OCCOCc2cc(C(=N)N)cs2)c2csc(N)n2)C(=O)N1S(=O)(=O)O [Example 56, (2S,3S)-3-{[(2Z)-2-(2-Amino-1,3-thiazol-4-yl)-2-({2-[(4-carbamimidoylthiophen-2-yl)methoxy]ethoxy}imino)acetyl]amino}-2-methyl-4-oxoazetidine-1-sulfonic acid]	2 (≈ 3.76 µM)	32 (≈ 60.2 µM)	32 (≈ 60.2 µM)	4 (≈ 7.52 µM)	1 (≈ 1.88 µM)	8 (≈ 15 µM)	0.5 (≈ 0.941 µM)	2 (≈ 3.76 µM)	1	4	4	0.5 (≈ 0.941 µM)	0.5 (≈ 0.941 µM)	4 (≈ 7.52 µM)	32 (≈ 60.2 µM)	32 (≈ 60.2 µM)	4 (≈ 7.52 µM)	2 (≈ 3.76 µM)	–
CC1(C)[C@H](NC(=O)/C(=N\O[C@H](COc2ccc(C(=N)NCCNc3ncccn3)cc2)C(=O)O)c2csc(N)n2)C(=O)N1OS(=O)(=O)O [Example 111, (2R)-2-({[(1Z)-1-(2-Amino-1,3-thiazol-4-yl)-2-{[(3S)-2,2-dimethyl-4-oxo-1-(sulfooxy)-azetidin-3-yl]amino}-2-oxoethylidene]amino}oxy)-3-(4-{N-[2-(pyrimidin-2-ylamino)ethyl]carbamimidoyl}phenoxy)propanoic acid]	0.25 (≈ 0.354 µM)	32 (≈ 45.3 µM)	–	32 (≈ 45.3 µM)	–	–	4 (≈ 5.66 µM)	8 (≈ 11.3 µM)	8	8	8	8 (≈ 11.3 µM)	8 (≈ 11.3 µM)	16 (≈ 22.6 µM)	32 (≈ 45.3 µM)	32 (≈ 45.3 µM)	2 (≈ 2.83 µM)	16 (≈ 22.6 µM)	32 (≈ 45.3 µM)
C[C@H]1[C@H](NC(=O)/C(=N\OCCOc2ccc(C(=N)NCCOC=O)cc2)c2csc(N)n2)C(=O)N1S(=O)(=O)O [Example 70, (2S,3S)-3-{[(2Z)-2-(2-Amino-1,3-thiazol-4-yl)-2-{[2-(4-{N-[2-(formyloxy)ethyl]carbamimidoyl}phenoxy)ethoxy]imino}acetyl]amino}-2-methyl-4-oxoazetidine-1-sulfonic acid]	0.125 (≈ 0.214 µM)	16 (≈ 27.4 µM)	16 (≈ 27.4 µM)	2 (≈ 3.43 µM)	0.125 (≈ 0.214 µM)	8 (≈ 13.7 µM)	0.125 (≈ 0.214 µM)	0.125 (≈ 0.214 µM)	0.25	0.25	0.25	0.125 (≈ 0.214 µM)	0.25 (≈ 0.428 µM)	0.25 (≈ 0.428 µM)	4 (≈ 6.85 µM)	4 (≈ 6.85 µM)	0.5 (≈ 0.857 µM)	0.25 (≈ 0.428 µM)	–
C[C@H]1[C@H](NC(=O)/C(=N\OCCOc2nnc(C(=N)N)s2)c2csc(N)n2)C(=O)N1S(=O)(=O)O [Example 65, (2S,3S)-3-{[(2Z)-2-(2-Amino-1,3-thiazol-4-yl)-2-({2-[(5-carbamimidoyl-1,3,4-thiadiazol-2-yl)oxy]ethoxy}imino)acetyl]amino}-2-methyl-4-oxoazetidine-1-sulfonic acid]	0.5 (≈ 0.962 µM)	32 (≈ 61.6 µM)	16 (≈ 30.8 µM)	8 (≈ 15.4 µM)	0.25 (≈ 0.481 µM)	8 (≈ 15.4 µM)	0.25 (≈ 0.481 µM)	0.5 (≈ 0.962 µM)	0.5	1	2	0.125 (≈ 0.241 µM)	0.25 (≈ 0.481 µM)	0.5 (≈ 0.962 µM)	16 (≈ 30.8 µM)	32 (≈ 61.6 µM)	1 (≈ 1.92 µM)	1 (≈ 1.92 µM)	–
C[C@H]1[C@H](NC(=O)/C(=N\OCCOc2ccc(C(=N)NCCN)cc2)c2csc(N)n2)C(=O)N1OCS(=O)(=O)O [Example 77, {[(2S,3S)-3-{[(2Z)-2-[(2-{4-[N-(2-Aminoethyl)carbamimidoyl]phenoxy}ethoxy)imino]-2-(2-amino-1,3-thiazol-4-yl)acetyl]amino}-2-methyl-4-oxoazetidin-1-yl]oxy}methanesulfonic acid]	–	16 (≈ 27.4 µM)	–	8 (≈ 13.7 µM)	–	–	0.5 (≈ 0.855 µM)	0.5 (≈ 0.855 µM)	1	1	1	2 (≈ 3.42 µM)	2 (≈ 3.42 µM)	2 (≈ 3.42 µM)	8 (≈ 13.7 µM)	16 (≈ 27.4 µM)	–	0.5 (≈ 0.855 µM)	–
